The text below walks through data of patent US4762848A, “1,3-thiazoles and their use as immunomodulators” (Hoechst Aktiengesellschaft, priority 1985, dated 1988).

For experiment [1], the system named is cellular immune response (DTH reaction) to sheep erythrocytes. Briefly: Delayed type hypersensitivity (DTH) foot swelling reaction to sheep erythrocytes. As to conditions: mice, i.p. and p.o. It counts as in vivo, female NMRI mice. As to the method:
Effect On The Cellular Immunological Reaction, of the Delayed Type, to Sheep Erythrocytes (Delayed Type Hypersensitivity, DTH)
Either 10^6 or 10^9 red blood cells from sheep were administered intravenously to each animal in groups of 5 female NMRI mice weighing 18-20 g. Sheep erythrocytes are regarded in immunology as a standard test substance (antigen) for the induction of cellular and humoral immune reactions. In particular, this test provides information about the functioning of the T-cell-dependent component (T-helper cells) of the immune system. The test substance obtained as in exemplary embodiment 7 ([2-(3-carboxy-1-propylthio)-4 -methyl-1,3-thiazol-5-yl]acetic acid) was administered intraperitoneally and perorally, respectively, in the concentrations 10-100 mg/kg in physiological saline solution on days -3, -2, -1 and 0.After 5 days, each animal received 2×10^8 sheep erythrocytes injected into the underside of the foot and, 24 hours later, the swelling of the foot was measured. The foot swelling is induced by a skin reaction of the delayed type (delayed type hypersensitivity, DTH) and is, as is known to the expert, a measure of the cellular immune response (Collins, F. M. and Mackaness, G. B., J. Immunol. 101, 830-845, 1968). […]

The test system of experiment [2] is mouse peritoneal macrophages. The experiment is described as follows: Pinocytosis of colloidal gold (198Au) by peritoneal macrophages of treated mice. It counts as in vivo, NMRI mice. As to the method:
(§1) This entailed investigation of the effect of the test substance obtained as in exemplary embodiment 7 on the stimulation of peritoneal macrophages in 6-8 week old NMRI mice. Female mice received the test substance in parenteral or oral doses of 25 mg/kg, 50 mg/kg, 100 mg/kg and 200 mg/kg. Buffered saline solution was administered to a control group. The mice were sacrificed three days after the injections, and the peritoneal macrophages of the animals were examined for their state of activation. The secretion of the lysosomal enzymes (β-galactosidase, β-glucuronidase and N-acetyl-β-D-glucosaminidase) was determined as one measure of macrophage activation. […] The level of oxidative metabolism in macrophages is taken as another measure of their state of activation. This activity is measured with the assistance of a biolumate by determination of the chemiluminescence.
(§2) For this purpose, either 3×10^6 macrophages were cultured with 1 ml of TC 199 culture medium in Petri dishes of diameter 30 mm or 10^6 macrophages were cultured with 100 μl of medium in round-bottomed polyethylene tubes (for determination of the chemiluminescence), with 5% CO2 and at 37° C.
(§3) After incubation for one hour, the cultures were washed to remove floating cells. The chemiluminescence (tube culture) was then determined directly, whereas the Petri dishes were incubated for a further 24 hours at 37° C. and then the enzyme and pinocytosis activities in the cultures were determined.
The quantitative determination of the pinocytosis activity of mononuclear phagocytes was carried out by the method of Davies et al. (Davies, P., Allison, A. C. and Haswell, A. D.; Biochem. Biophys. Res. Com. 52, 627, 1973). Radioactive colloidal gold (^198 Au) with a particle size of 20 nm and a specific activity of 4-12 mCi/mg of Au was used for this. The results in Table 4 illustrate the effect of the test substance obtained as in Example 7 on the efficiency of endocytosis.

Another experiment relates to DTH reaction (SRBC). Briefly: Stimulation of the DTH reaction, relative to the compound from Example 7. Format: in vivo, NMRI mice. As to conditions: 200 mg/kg, 1 × i.p. day 0; Example 7 = 100%. As to the method: Either 10^6 or 10^9 red blood cells from sheep were administered intravenously to each animal in groups of 5 female NMRI mice weighing 18-20 g. Sheep erythrocytes are regarded in immunology as a standard test substance (antigen) for the induction of cellular and humoral immune reactions. In particular, this test provides information about the functioning of the T-cell-dependent component (T-helper cells) of the immune system. The test substance obtained as in exemplary embodiment 7 ([2-(3-carboxy-1-propylthio)-4 -methyl-1,3-thiazol-5-yl]acetic acid) was administered intraperitoneally and perorally, respectively, […], each animal received 2×10^8 sheep erythrocytes injected into the underside of the foot and, 24 hours later, the swelling of the foot was measured. The foot swelling is induced by a skin reaction of the delayed type (delayed type hypersensitivity, DTH) and is, as is known to the expert, a measure of the cellular immune response (Collins, F. M. and Mackaness, G. B., J. Immunol. 101, 830-845, 1968). The results compiled in Table 1 illustraste that there is an increase in the cellular immune response owing to the administration of the subst nce obtained according to the invention, for example after imnunization with 10^6 or 10^9 sheep erythrocytes. An optimum stimulation can be observed in this experimental design on administration of 20-40 mg/kg test substance.
NMRI mice were treated with the substances according to the invention as described in experiment 1.
The DTH reaction was checked as a test to determine the immunostimulation.
It can be seen from the table that the DTH reaction in the animals pretreated with the test substances is more pronounced than in the corresponding control animals.

The test system of a further experiment is macrophages. Briefly: Stimulation of macrophage activity (chemiluminescence), relative to the compound from Example 7. Format: in vivo, NMRI mice. Conditions: 100 mg/kg, 1 × i.p. day 0; relative to Example 7 = 100%. As to the method:
as §1, §2, §3
NMRI mice were treated with the compounds according to the invention as described in experiment 2.
The macrophage function (chemiluminescence and enzyme activity) was checked as a test to determine the immunostimulation.
It can be seen from the table that in comparison with macrophages from untreated animals, the chemiluminescence reaction of these cells was also greatly stimulated by all the test substances, and their content of lysosomal enzymes was markedly raised.

Consider `Cc1nc(SCCCC(=O)O)sc1CC(=O)O` [Example 7, [2-(3-Carboxy-1-propylthio)-4-methyl-1,3-thiazol-5-yl]acetic acid], for which, in experiment [1], the “dose for optimum stimulation of the cellular immune response” value fell in the range of 20 to 40 mg/kg. For the same compound, the “efficiency of pinocytosis of mouse macrophages” value in experiment [2] (25 mg/kg, 1 × intraperitoneal) is recorded as 0.415 × 10^3 cpm; in experiment [2] (25 mg/kg, 1 × oral), 0.365 × 10^3 cpm; in experiment [2] (50 mg/kg, 1 × intraperitoneal) it was 0.558 × 10^3 cpm; in experiment [2] (50 mg/kg, 1 × oral), 0.448 × 10^3 cpm; in experiment [2] (100 mg/kg, 1 × intraperitoneal) it was 0.718 × 10^3 cpm; in experiment [2] (100 mg/kg, 1 × oral), 0.661 × 10^3 cpm. For the same compound, the “efficiency of pinocytosis of mouse macrophages” value was 0.862 × 10^3 cpm in experiment [2] (200 mg/kg, 1 × intraperitoneal) and 0.739 × 10^3 cpm in experiment [2] (200 mg/kg, 1 × oral). Besides, the “DTH reaction (SRBC), relative activity” value in the experiment with DTH reaction (SRBC) was 100%. Besides, the “Macrophage activity: Chemiluminescence, relative activity” value with macrophages is 100%.
